Test results from patent US8802082B2, “Rhodamine derivatives for photodynamic diagnosis and treatment” (Université de Montreal, priority 1999, dated 2014).

Experiments:
Format in all cases: cell-based, human
[1] = system: activated lymphocytes; assay: Cellular content/efflux of TH9402 by flow cytometry, activated lymphocytes; settings: 10 μM TH9402, wash with 1 μg/ml cyclosporin-A, 110 minutes
Method: (§1) TH9402 cellular content in resting and activated lymphocytes was evaluated by flow-cytometry, since the intensity of TH9402 (green) fluorescence correlates with the cellular content in TH9402. Briefly, 10^6 cells/ml, previously activated or not with PHA, were incubated in X-vivo-5 medium supplemented with 2.5% human AB serum and 10 μM TH9402 for 40 minutes. These cells were washed two times with X-vivo medium supplemented with 10% AB serum and cells analysed by flow cytometry 30, 50, 70, 90 and 110 min after the end of the TH9402 incorporation period. […] Since cellular concentration of TH9402 correlates with the extent of cell elimination, the high concentration of TH9402 maintained in activated lymphocytes explains their sensitivity to photodynamic therapy. In contrast, the rapid efflux of TH9402 from resting lymphocytes should explain preservation of their proliferative activity.
In order to identify the mechanism responsible for the differential retention of TH9402 between activated and resting lymphocytes, cyclosporin-A was used to block the multidrug transporter (P-gp 170). These cells were incubated with 10 μM TH9402 for 8 minutes, and washed with medium containing 1 μg/ml cyclosporin-A or medium alone. TH9402 retention was subsequently evaluated by flow-cytometry (green fluorescence) (FIG. 5). […]

[2] = system: non-lymphoid hematopoietic progenitors (CFU-GM, BFU-E, CFU-GEMM); assay: Clonogenic assay of hematopoietic progenitors in methylcellulose after PDT; settings: same conditions of PDT as for B cells
Method: To evaluate the potential of PDT with TH9402 to eliminate other immune cell populations, normal human B cells were used as targets. Mononuclear cells from normal donors were obtained by leukopheresis, and resuspended at 20 million cells per ml during the whole PDT process. Cells were centrifuged and resuspended in pre-warmed (37° C.) X-Vivo-15 medium supplemented with 2.5% FCS and 10 U/ml heparin, with 5 μM TH9402. After 40 minutes of incubation at 37° C., cells were washed and resuspended in a X-Vivo-15 medium and 10% FCS with 10 U/ml heparin (medium free of TH9402) for an efflux period of 50 minutes before exposure to light energy (10 to 30 Joules/cm^2). Cells underwent light exposure at 20 million cells per ml and at a thickness of 2 cm.
To verify that the treatment preserved normal hematopoetic progenitors, we have used a clonogenic assay to measure the amount of hematopoetic clonogenic precursors present in the same samples. […]
Normal human mononuclear cells were obtained and subjected to various PDP conditions to determine the efficacy of eradication of B cells, specificity and safety of the procedure. […] In contrast, when these cells were evaluated for the elimination of non-lymphoid hematopoietic progenitors, usually less than 50% (half of a logarithm) of these progenitors were eliminated by the same conditions of PDT (FIG. 7B). […]

[3] = system: resting lymphocytes; assay: Cellular content/efflux of TH9402 by flow cytometry, resting lymphocytes
Method: as §1
In order to identify the mechanism responsible for the differential retention of TH9402 between activated and resting lymphocytes, cyclosporin-A was used to block the multidrug transporter (P-gp 170). These cells were incubated with 10 μM TH9402 for 8 minutes, and washed with medium containing 1 μg/ml cyclosporin-A or medium alone. TH9402 retention was subsequently evaluated by flow-cytometry (green fluorescence) (FIG. 5). […] The functional impairment of such a pump in activated lymphocytes could explain the high levels of phototoxicity observed in these cells.

[4] = system: activated T lymphocytes (CD25+, CD4+ and CD8+); assay: Phenotypic analysis of residual T lymphocytes after phototherapy (CD25, CD4, CD8 flow cytometry); settings: 10 μM TH9402; 2.5, 5 and 10 joules/cm^2; 48 to 72 hours culture; untreated 14%
Method: In order to determine if the abrogation of reactivity toward subject B obtained after PDT correlated with the loss of activated T cells, the proportion of activated cells was determined in samples exposed or not to PDT. Activated cells can be discriminated from resting T lymphocytes by their enhanced expression of CD25, which can be detected with a monoclonal antibody specific for CD25, the inducible a chain of the IL-2 receptor. Briefly, after activation of T cells in mixed lymphocyte reaction, as described above, activated T lymphocytes were incubated in X-vivo 15 medium (BioWhittaker) supplemented with 2.5% human AB serum and 10 μM TH9402 for 40 min. These cells were than washed twice with X-vivo-15 medium supplemented with 10% AB human serum. At 110 min after the end of the incubation period, cells were exposed to doses of light ranging from 2.5 to 10 joules/cm^2 of using the above described light delivery device (U.S. Pat. No. 5,798,523). Light energy was delivered using a fluorescent scanning device with maximum wavelength at 512 nm. After treatment, cells were cultured for 48 to 72 hours in X-vivo-15 medium supplemented with 15% of human AB serum. After the latter incubation period, cells were counted and their immunophenotypes analyzed by dual-color flow cytometry to determine the proportion of activated T lymphocytes. […]

Br.COC(=O)c1ccccc1-c1c2ccc(=N)c(Br)c-2oc2c(Br)c(N)ccc12 [TH9402, 4,5-dibromorhodamine 123 (2-(4,5-dibromo-6-amino-3-imino-3H-xanthen-9-yl)-benzoic acid methyl ester) hydrobromide]
fluorescence intensity in activated cells treated or not treated with cyclosporin A [1]: identical | non-lymphoid hematopoietic progenitors eliminated [2]: less than 50% | cells demonstrating low TH9402 fluorescence ([3]; 10 μM TH9402 40 min, 110 minutes after the end of the incorporation period): approximately 50% | TH9402 retention with cyclosporin A versus medium alone, resting lymphocytes ([3]; 10 μM TH9402, wash with 1 μg/ml cyclosporin-A, 110 minutes): higher retention | intensity of TH9402 fluorescence, resting versus activated lymphocytes ([3]; all time-points evaluated (30-110 min)): less for resting lymphocytes than for activated lymphocytes | proportion of activated T lymphocytes, both CD4+ and CD8+, after PDT [4]: below 1%
